Test results taken from ChEMBL document CHEMBL4819112, “Design, synthesis and antitumor activity of phthalazine-1,4-dione-based menaquinone analogs” (Bioorg Med Chem Lett, 2021).
The source made the active and inactive calls. The rule behind the calls is not given here.

Legend:
FLC-4 = assay: Growth inhibition of human FLC-4 cells measured after 24 hrs; type: functional, cell-based
Hepatocyte = assay: Growth inhibition of human hepatocytes cells upto 10 uM measured after 24 hrs; type: cell-based
[1] = (§1) Growth inhibition of human JHH7 cells measured after 24 hrs; type: functional, cell-based; conditions: JHH7, 24 h
JHH7 = assay: as §1; type: functional, cell-based

| SMILES | Activity (FLC-4) | Activity (Hepatocyte) | IC50 [1] | Activity (JHH7) |
| --- | --- | --- | --- | --- |
| CC(C)=CCC/C(C)=C/Cn1c(=O)c2ccccc2c(=O)n1C | Active | Non-Toxic | 340 nM |  |
| CC(C)=CCn1c(=O)c2ccccc2c(=O)n1C |  | Non-Toxic |  | Active |
| CC(C)=CCC/C(C)=C/CC/C(C)=C/Cn1c(=O)c2ccccc2c(=O)n1C |  |  |  | Active |
| CC(C)=CCC/C(C)=C/CC/C(C)=C/CC/C(C)=C/Cn1c(=O)c2ccccc2c(=O)n1C |  |  |  | Active |
| C/C(=C\CC/C(C)=C/Cn1c(=O)c2ccccc2c(=O)n1C)CC/C=C(\C)CC/C=C(\C)C(=O)O |  |  |  | Active |
